# Data as given in patent US20090143279A1 (priority 2007, published 2009).
# Like-named read-outs stand apart in the source and are kept apart here.
# What was measured:
# [1] = test system: mitochondrial membrane potential; format: cell-based, mouse; details: for ΔΨm (composite Z-score): normalized score vs mock-treated (DMSO) wells
# reactive oxygen species = format: cell-based, mouse; details: for ROS (composite Z-score): normalized score vs mock-treated (DMSO) wells
# OXPHOS gene expression = format: cell-based, mouse; details: for GE-HTS (composite Z-score): normalized score vs mock-treated (DMSO) wells
# nuOXPHOS transcripts = format: cell-based, mouse; details: for nucOX (composite Z-score): normalized score vs mock-treated (DMSO) wells
# mtOXPHOS transcripts = format: cell-based, mouse; details: for mitoOX (composite Z-score): normalized score vs mock-treated (DMSO) wells
# cytochrome c = format: cell-based, mouse; details: for cyt c (composite Z-score): normalized score vs mock-treated (DMSO) wells
# Sequence of cytochrome c (P62897 whole entry): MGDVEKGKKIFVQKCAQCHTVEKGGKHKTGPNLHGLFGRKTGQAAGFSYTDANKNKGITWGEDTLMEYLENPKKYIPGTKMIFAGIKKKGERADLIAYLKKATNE
# C2C12 myotubes = details: for Viability (composite Z-score): normalized score vs mock-treated (DMSO) wells
# [2] = test system: cellular dehydrogenase activity; details: for MTT (composite Z-score): normalized score vs mock-treated (DMSO) wells
# [3] = composite Z-score vs DMSO, Conc 20 μM
# [4] = composite Z-score vs mock-treated (DMSO) wells, Conc 20 μM
# [5] = 20 μM, composite Z-score vs DMSO
# [6] = normalized composite Z-score vs mock-treated (DMSO) wells, Conc 20 μM
compound,measurement,setting,value
CC(=O)[C@@]1(O)CC[C@H]2[C@@H]3C=C(Cl)C4=CC(=O)[C@@H]5C[C@@H]5[C@]4(C)[C@H]3CC[C@@]21C [cyproterone],ΔΨm,[1]; [3],−0.962
same,ROS,reactive oxygen species; [3],1.155
same,GE-HTS,OXPHOS gene expression; [3],−0.490
same,nucOX,nuOXPHOS transcripts; [3],−0.461
same,mitoOX,mtOXPHOS transcripts; [3],−0.446
same,cyt c,cytochrome c; [3],0.548
same,Viability,C2C12 myotubes; [3],0.014
same,MTT,[2]; [3],0.079
COc1cc(O)c(C(=O)/C=C/c2ccccc2)c(OC)c1 [flavokawain B],ΔΨm,[1]; [3],−0.302
same,ROS,reactive oxygen species; [3],0.292
same,GE-HTS,OXPHOS gene expression; [3],−1.453
same,nucOX,nuOXPHOS transcripts; [3],−1.423
same,mitoOX,mtOXPHOS transcripts; [3],−1.291
same,cyt c,cytochrome c; [3],0.708
same,Viability,C2C12 myotubes; [3],0.583
same,MTT,[2]; [3],−0.298
CC=Cc1ccc2c(c1)OCO2 [isosafrole],ΔΨm,[1]; [4],−1.060
same,ROS,reactive oxygen species; [4],0.397
same,GE-HTS,OXPHOS gene expression; [4],−1.283
same,nucOX,nuOXPHOS transcripts; [4],−0.860
same,mitoOX,mtOXPHOS transcripts; [4],−1.917
same,cyt c,cytochrome c; [4],0.462
same,Viability,C2C12 myotubes; [4],−0.798
same,MTT,[2]; [4],−0.913
N#CC(=Cc1cccc(O)c1)C(=O)O [alpha-cyano-3-hydroxycinnamic acid],ΔΨm,[1]; [5],−0.165
same,ROS,reactive oxygen species; [5],0.452
same,GE-HTS,OXPHOS gene expression; [5],−0.747
same,nucOX,nuOXPHOS transcripts; [5],−0.903
same,mitoOX,mtOXPHOS transcripts; [5],−0.285
same,cyt c,cytochrome c; [5],0.349
same,Viability,C2C12 myotubes; [5],−0.861
same,MTT,[2]; [5],−0.323
beta-escin,ΔΨm (composite Z-score),[1]; Conc 20 μM,−3.416
same,ROS (composite Z-score),reactive oxygen species; Conc 20 μM,−3.107
same,GE-HTS (composite Z-score),OXPHOS gene expression; Conc 20 μM,−0.914
same,nucOX (composite Z-score),nuOXPHOS transcripts; Conc 20 μM,−0.883
same,mitoOX (composite Z-score),mtOXPHOS transcripts; Conc 20 μM,−0.745
same,cyt c (composite Z-score),cytochrome c; Conc 20 μM,−5.117
same,Viability (composite Z-score),C2C12 myotubes; Conc 20 μM,−5.049
same,MTT (composite Z-score),[2]; Conc 20 μM,−5.088
CC(C)=CCc1c(O)cc2occ(-c3ccc4c(c3)OCO4)c(=O)c2c1O [derrubone],ΔΨm,[1]; [3],−1.272
same,ROS,reactive oxygen species; [3],1.419
same,GE-HTS,OXPHOS gene expression; [3],−0.409
same,nucOX,nuOXPHOS transcripts; [3],−0.626
same,mitoOX,mtOXPHOS transcripts; [3],0.066
same,cyt c,cytochrome c; [3],−0.126
same,Viability,C2C12 myotubes; [3],−0.568
same,MTT,[2]; [3],−0.499
Cc1cc(=O)c2c(O)c3c(cc2o1)OCC(C)CC3 (stereo not shown) [dihydroptaeroxylin],ΔΨm,[1]; [6],−0.192
same,ROS,reactive oxygen species; [6],0.151
same,GE-HTS,OXPHOS gene expression; [6],−0.581
same,nucOX,nuOXPHOS transcripts; [6],−0.410
same,mitoOX,mtOXPHOS transcripts; [6],−0.787
same,cyt c,cytochrome c; [6],0.403
same,Viability,C2C12 myotubes; [6],0.605
same,MTT,[2]; [6],−0.526
"CC[C@@H](C(=O)[C@@H](C)[C@@H](O)[C@H](C)[C@@H]1O[C@@H]([C@@H](CC)C(=O)O)CC[C@@H]1C)[C@H]1O[C@]2(C=C[C@@H](O)[C@]3(CC[C@@](C)([C@H]4CC[C@](O)(CC)[C@H](C)O4)O3)O2)[C@H](C)C[C@@H]1C [salinomycin, reference compound]",ΔΨm,[1]; [5],2.976
same,ROS,reactive oxygen species; [5],−3.111
same,GE-HTS,OXPHOS gene expression; [5],−1.400
same,nucOX,nuOXPHOS transcripts; [5],−0.345
same,mitoOX,mtOXPHOS transcripts; [5],−3.359
same,cyt c,cytochrome c; [5],−0.566
same,Viability,C2C12 myotubes; [5],−0.247
same,MTT,[2]; [5],−2.918
C[C@]12CC[C@@H]3c4ccc(O)cc4CC[C@H]3[C@@H]1CC[C@@H]2O [estradiol],ΔΨm,[1]; [3],−0.085
same,ROS,reactive oxygen species; [3],0.310
same,GE-HTS,OXPHOS gene expression; [3],0.290
same,nucOX,nuOXPHOS transcripts; [3],0.410
same,mitoOX,mtOXPHOS transcripts; [3],−0.058
same,cyt c,cytochrome c; [3],0.389
same,Viability,C2C12 myotubes; [3],0.400
same,MTT,[2]; [3],−1.040
"Oc1nc2cc(Cl)c(Cl)cc2nc1O [2,3-dihydroxy-6,7-dichloroquinoxaline]",ΔΨm (composite Z-score),[1]; Conc 20 μM,−1.689
same,ROS (composite Z-score),reactive oxygen species; Conc 20 μM,0.085
same,GE-HTS (composite Z-score),OXPHOS gene expression; Conc 20 μM,−0.724
same,nucOX (composite Z-score),nuOXPHOS transcripts; Conc 20 μM,−0.712
same,mitoOX (composite Z-score),mtOXPHOS transcripts; Conc 20 μM,−0.565
same,cyt c (composite Z-score),cytochrome c; Conc 20 μM,0.279
same,Viability (composite Z-score),C2C12 myotubes; Conc 20 μM,−0.077
same,MTT (composite Z-score),[2]; Conc 20 μM,−1.458
O=c1cc(-c2ccc(O)cc2)oc2cc(O[C@@H]3O[C@H](CO)[C@@H](O)[C@H](O)[C@H]3O)cc(O)c12 [cosmosiin],ΔΨm,[1]; [3],0.053
same,ROS,reactive oxygen species; [3],−0.052
same,GE-HTS,OXPHOS gene expression; [3],−0.433
same,nucOX,nuOXPHOS transcripts; [3],−0.287
same,mitoOX,mtOXPHOS transcripts; [3],−0.611
same,cyt c,cytochrome c; [3],−0.009
same,Viability,C2C12 myotubes; [3],0.141
same,MTT,[2]; [3],−0.801
